How the values were obtained:
[1] = test system: patients with multiple sclerosis; assay: Timed 10 meter walk, 15 week study; format: in vivo, human
Description: (§1) Secondary outcomes were also measured in the above-described study. Such secondary outcomes included the Rivermead mobility index (See e.g. Collen, F. M. et al., The Rivermead mobility index: a further development of the Rivermead motor assessment. Int. Disanil. Stud. 1991; 13:50 54) hereby incorporated by reference in its entirety, a timed 10 meter walk, four self completion questionnaires—the United Kingdom neurological disability score (See e.g. Sharrack, B., Hughes R. A., The Guy's neurological disability scale (GNDS): a new disability measure for multiple sclerosis. Mult. Sder. 1999; 5: 223-33), and a series of nine category-rating scales. For the category-rating scale assessment, patients were asked to assess how their symptoms had been over the previous week compared with how they were just before the study started. Categories included irritability, depression, tiredness, muscle stiffness, tremor, pain, sleep, muscle spasms, and amount of energy.
With respect to secondary outcome measures, 322 patients provided at least one baseline walk time. Of these, seven (1 cannabis extract, 3 delta-9-THC, 3 placebo) dropped out of the trial. Walk times were obtained from 278 patients at visit seven. In total, 20 patients were unable to walk (8 cannabis extract, 5 delta-9-THC, 7 placebo) and very large walk times were substituted for these individuals.

[2] = test system: multiple sclerosis patients; conditions: 15 week trial; cited from earlier work
[3] = test system: patients with multiple sclerosis; assay: Timed 10 metre walk / ability to walk, 52 week follow up; format: in vivo, human; conditions: end of 52 week study
Text: (§2) In order to reduce the potential for unmasking bias from treatment side effects, two study personnel were used at each centre. A treating physician monitored the dosage, side effects, and patient wellbeing, while an assessor (usually a physiotherapist) measured the Ashworth score, timed 10 metre walk, and Rivermead Mobility Index (RMI). […] Assessors remained blinded to any discussion of dosage or side effects, and when evaluating patients' spasticity, were instructed not to have access to their assessment scores from previous visits. […]
(§3) Times taken to complete a 10 metre walk were analysed using the Kruskal-Wallis test, and non-parametric methods were used to produce confidence intervals for the median. The RMI, UKNDS, postal BI, and GHQ-30 were each analysed using non-parametric analysis of variance to compare the groups. EDSS scores were analysed using Fisher's exact test. Category rating scales were analysed using contingency table analysis. […]

[4] = test system: patients with multiple sclerosis; assay: Ashworth score, 52 week follow up; format: in vivo, human
Text: In Example 4, the study described in Examples 1-3 above was continued to determine if long-term therapy with D9-TCH or cannabis plant extract would affect the progression of MS. At the end of week 15, patients were offered the opportunity to resume medication at the previously determined dose for a maximum of 52 weeks. If patients decided not to continue medication, the reasons for non-continuance were documented. Throughout the study, capsule compliance was checked at clinic visits by counting the number of capsules returned. Urine samples for cannabinoid analysis were collected at each clinic visit during the follow up phase in order to evaluate potential cannabis use in the placebo group.
(§4) In order to reduce the potential for unmasking bias from treatment side effects, two study personnel were used at each centre. A treating physician monitored the dosage, side effects, and patient wellbeing, while an assessor (usually a physiotherapist) measured the Ashworth score, timed 10 metre walk, and Rivermead Mobility Index (RMI). […] Assessors remained blinded to any discussion of dosage or side effects, and when evaluating patients' spasticity, were instructed not to have access to their assessment scores from previous visits. Self completion booklets containing the General Health Questionnaire-30 (GHQ-30), category rating scales (asking patients to assess any change in their symptoms at that point in the study compared with how they were before they started medication, and measuring irritability, depression, tiredness, muscle stiffness, tremor, pain, sleep, muscle spasms, and energy levels), the UK Neurological Disability Scale (UKNDS), and the Barthel Index (BI) were sent to participants just prior to week 27 and week 52. The Expanded Disability Status Scale (EDSS) was used at week 52.
As set forth in FIG. 5, 95% Confidence intervals for differences in means (active minus placebo) of changes in total Ashworth score at each visit are shown. […] For these patients, their last Ashworth score (visit 10) was carried forward as their final measured response. […]

[5] = test system: patients with multiple sclerosis; assay: Rivermead Mobility Index (RMI), 52 week follow up; format: in vivo, human; conditions: FIG. 6
Text: as §2, §3

[6] = test system: patients with multiple sclerosis; assay: Category-rating scales of symptoms, 15 week study; format: in vivo, human; conditions: category rating vs before study start
Description: as §1
Category rating scales were used to assess whether patients felt their symptoms had improved while on treatment relative to before start of treatment. Overall, patients felt that symptoms of pain, sleep quality, spasms, and had improved while on active treatment.

patients with MS = conditions: 4 week period, oral; cited from earlier work
[7] = test system: patients with multiple sclerosis with problematic spasticity; assay: Ashworth score of spasticity, randomized placebo-controlled 15 week study; format: in vivo, human; conditions: baseline to 13 weeks follow-up
[8] = test system: patients with multiple sclerosis; assay: Patient assessment of treatment benefit at visit 8; format: in vivo, human; conditions: patient assessment at visit 8
Text: At visit 8 in the study described in Examples 1 and 2, patients were asked uestions about whether treatment had improved pain, tremor, spasticity, or ymptoms. […] Overall, more patients perceived an improvement in spasticity and pain when taking the active treatments than when taking placebo. Difference in perception of improvement in tremor was not statistically significant and no treatment effect on bladder symptoms was identified. Although there was no stratification for these specific symptoms between groups, the groups were broadly balanced for these symptoms apart from bladder symptoms, where there were fewer patients with urinary symptoms in the group taking, delta-9-THC.

[9] = test system: patients with multiple sclerosis; assay: Serious adverse events (hospital admissions), 52 week follow up; format: in vivo, human
Text: During this study, all hospital admissions were classed as serious adverse events.

[10] = test system: patients with multiple sclerosis; assay: Category rating scales, 52 week follow up; format: in vivo, human; conditions: category rating scale, 52 week follow up study
Text: as §4
Times taken to complete a 10 metre walk were analysed using the Kruskal-Wallis test, and non-parametric methods were used to produce confidence intervals for the median. The RMI, UKNDS, postal BI, and GHQ-30 were each analysed using non-parametric analysis of variance to compare the groups. EDSS scores were analysed using Fisher's exact test. Category rating scales were analysed using contingency table analysis. Comparison was made between patients choosing to continue on medication and those who chose to discontinue, by baseline Ashworth scores, RMI, EDSS, age, weight, ambulatory status, type of disease, sex, and use of urinary catheter. No adjustments were made for multiple comparisons.

[11] = test system: patients with multiple sclerosis; assay: Adverse events reported by patients, 15 week study

Q: What does the source list for `CCCCCc1cc(O)c2c(c1)OC(C)(C)[C@@H]1CCC(C)=C[C@@H]21` (relative stereo) [delta-9-THC, Delta-9-Tetrahydrocannabinol]?
A: reduction of median time taken to walk 10 meters from baseline to follow-up ([1]; baseline to visit 7): 12%; patients unable to walk (number) ([1]; visit 7): 5; slowing of progression of MS [2]: did not yield results indicating that cannabinoids including dronabinol slowed progression of MS; proportion of patients unable to walk at the end of the study who could walk at baseline [3]: 6%; Mean (SD) difference in Ashworth scores from baseline to end of study ([4]; 52 week follow up): 1.82 (8.12); improvement on the Ashworth scale from a baseline mean of around 22 ([4]; 52 week follow up): approximately 2 points; effect on progression of MS (spasticity and disability) ([4]; end of the 52 week treatment period): profound effects in slowing the progression of MS; treatment effect on Rivermead Mobility Index [5]: Suggestion of treatment effect; Depression: Deterioration, % of patients [6]: (34%); Depression: Deterioration, number of patients [6]: 42; Depression: Improvement, % of patients [6]: (29%); Depression: Improvement, number of patients [6]: 36; Depression: Same, % of patients [6]: (38%); Depression: Same, number of patients [6]: 47; Energy: Deterioration, % of patients [6]: (28%); Energy: Deterioration, number of patients [6]: 49; Energy: Improvement, % of patients [6]: (35%); Energy: Improvement, number of patients [6]: 61; Energy: Same, % of patients [6]: (36%); Energy: Same, number of patients [6]: 63; Irritability: Deterioration, % of patients [6]: (29%); Irritability: Deterioration, number of patients [6]: 32; Irritability: Improvement, % of patients [6]: (33%); Irritability: Improvement, number of patients [6]: 37; Irritability: Same, % of patients [6]: (38%); Irritability: Same, number of patients [6]: 42; Pain: Deterioration, % of patients [6]: (17%); Pain: Deterioration, number of patients [6]: 22; Pain: Improvement, % of patients [6]: (50%); Pain: Improvement, number of patients [6]: 64; Pain: Same, % of patients [6]: (33%); Pain: Same, number of patients [6]: 43; Shake/tremor: Deterioration, % of patients [6]: (25%); Shake/tremor: Deterioration, number of patients [6]: 32; Shake/tremor: Improvement, % of patients [6]: (41%); Shake/tremor: Improvement, number of patients [6]: 52; Shake/tremor: Same, % of patients [6]: (34%); Shake/tremor: Same, number of patients [6]: 44; Sleep: Deterioration, % of patients [6]: (16%); Sleep: Deterioration, number of patients [6]: 24; Sleep: Improvement, % of patients [6]: (47%); Sleep: Improvement, number of patients [6]: 71; Sleep: Same, % of patients [6]: (38%); Sleep: Same, number of patients [6]: 57; Spasms: Deterioration, % of patients [6]: (22%); Spasms: Deterioration, number of patients [6]: 27; Spasms: Improvement, % of patients [6]: (49%); Spasms: Improvement, number of patients [6]: 81; Spasms: Same, % of patients [6]: (29%); Spasms: Same, number of patients [6]: 49; Spasticity: Deterioration, % of patients [6]: (27%); Spasticity: Deterioration, number of patients [6]: 47; Spasticity: Improvement, % of patients [6]: (51%); Spasticity: Improvement, number of patients [6]: 89; Spasticity: Same, % of patients [6]: (23%); Spasticity: Same, number of patients [6]: 40; Tiredness: Deterioration, % of patients [6]: (48%); Tiredness: Deterioration, number of patients [6]: 76; Tiredness: Improvement, % of patients [6]: (22%); Tiredness: Improvement, number of patients [6]: 35; Tiredness: Same, % of patients [6]: (29%); Tiredness: Same, number of patients [6]: 46; changes in Ashworth scores (patients with MS): no significant changes; Mean (SD) change in Ashworth score, lower-body muscle groups [7]: 1.39 (5.21); Mean (SD) change in Ashworth score, upper-body muscle groups [7]: 0.48 (4.70); Mean (SD) change in total Ashworth score (baseline minus follow-up) ([7]; all muscle groups): 1.86 (7.95); Bladder symptom improvement: No, % of patients [8]: 59%; Bladder symptom improvement: No, number of patients [8]: 97; Bladder symptom improvement: Yes, % of patients [8]: 40%; Bladder symptom improvement: Yes, number of patients [8]: 67; Pain improvement: No, % of patients [8]: 50%; Pain improvement: No, number of patients [8]: 64; Pain improvement: Yes, % of patients [8]: 50%; Pain improvement: Yes, number of patients [8]: 64; Spasticity improvement: No, % of patients [8]: 40%; Spasticity improvement: No, number of patients [8]: 73; Spasticity improvement: Yes, % of patients [8]: 60%; Spasticity improvement: Yes, number of patients [8]: 108; Tremor improvement: No, % of patients [8]: 60%; Tremor improvement: No, number of patients [8]: 67; Tremor improvement: Yes, % of patients [8]: 40%; Tremor improvement: Yes, number of patients [8]: 44; serious adverse events reported (total number) ([9]; 52 week follow up, all hospital admissions): 24; Serious adverse event: Insertion of baclofen pump (frequency) ([9]; CM): 0; Serious adverse event: Limb fracture (frequency) ([9]; CM): 0; Serious adverse event: Other (frequency) ([9]; CM): 8; Serious adverse event: Pneumonia/chest infection (frequency) ([9]; CM): 1; Serious adverse event: Relapse/possible relapse (frequency) ([9]; CM): 8; Serious adverse event: Seizure (frequency) ([9]; CM): 0; Serious adverse event: Urinary tract infection (frequency) ([9]; CM): 3; Serious adverse events: No. of events ([9]; CM): 20; Serious adverse events: no. of patients ([9]; CM): 18; Serious adverse event: Insertion of baclofen pump (frequency) ([9]; DM): 0; Serious adverse event: Limb fracture (frequency) ([9]; DM): 0; Serious adverse event: Other (frequency) ([9]; DM): 2; Serious adverse event: Pneumonia/chest infection (frequency) ([9]; DM): 0; Serious adverse event: Relapse/possible relapse (frequency) ([9]; DM): 2; Serious adverse event: Seizure (frequency) ([9]; DM): 0; Serious adverse event: Urinary tract infection (frequency) ([9]; DM): 0; Serious adverse events: No. of events ([9]; DM): 4 (4); Serious adverse events: no. of patients ([9]; DM): 4 (4); Depression: Deterioration, % [10]: 17 (17) %; Depression: Improvement, % [10]: 26%; Depression: Same, % [10]: 57%; Energy: Deterioration, % [10]: 20%; Energy: Improvement, % [10]: 24%; Energy: Same, % [10]: 56%; Irritability: Deterioration, % [10]: 15 (15) %; Irritability: Improvement, % [10]: 30%; Irritability: Same, % [10]: 55%; Pain: Deterioration, % [10]: 16%; Pain: Improvement, % [10]: 28%; Pain: Same, % [10]: 56%; Shaking: Deterioration, % [10]: 19 (19) %; Shaking: Improvement, % [10]: 26%; Shaking: Same, % [10]: 55%; Sleep: Deterioration, % [10]: 12%; Sleep: Improvement, % [10]: 34%; Sleep: Same, % [10]: 54%; Spasms: Deterioration, % [10]: 25%; Spasms: Improvement, % [10]: 29%; Spasms: Same, % [10]: 46%; Spasticity: Deterioration, % [10]: 33%; Spasticity: Improvement, % [10]: 33%; Spasticity: Same, % [10]: 34%; Tiredness: Deterioration, % [10]: 21%; Tiredness: Improvement, % [10]: 25%; Tiredness: Same, % [10]: 54%; Adverse event: Blocked/insertion of suprapubic catheter (number) [11]: 0; Adverse event: Constipation (number) [11]: 0; Adverse event: Grand mal seizure (number) [11]: 0; Adverse event: MS relapse or possible relapse (number) [11]: 1; Adverse event: Other (number) [11]: 11; Adverse event: Pneumonia (number) [11]: 2; Adverse event: Urinary tract infection (number) [11]: 3
